Test system: parasites (ring stage, in human red blood cell culture)
Test: Parasite LDH growth assay (antiparasite potency, Parasite Assay)
Format: cell-based, Plasmodium falciparum
Details: 0.7% rings, 2% haematocrit, 72 hours at 37° C., LDH readout of parasite growth
Method in brief: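 Ring-stage parasites at 0.7% parasitemia and 2% haematocrit, in RPMI-Hepes/bicarbonate with 5% heat-inactivated human serum and 0.5% albumax, were added to compound-containing medium. Cultures grew 72 h at 37 °C in gassed humidified boxes. Plates were then frozen overnight at −80 °C, thawed 4 h, and growth was measured by LDH assay.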

Point of comparison: `CCC1(CC)C[C@@H](N2C(=N)NC(C)(C)CC2=O)c2cc(C(=O)N[C@@H]3c4ccccc4OC[C@H]3O)ccc2O1` [Example 57A, (R)-2,2-diethyl-N-((3S,4R)-3-hydroxychroman-4-yl)-4-(2-imino-4,4-dimethyl-6-oxotetrahydropyrimidin-1(2H)-yl)chromane-6-carboxamide], EC50 18.3 nM. Against it:
- CCC1C[C@@H](N2C(=N)NC(CC)(CC)CC2=O)c2cc(C(=O)N[C@@H]3c4ccccc4C[C@H]3O)ccc2O1 (single isomer, unassigned) [Example 9B] — 9.3-fold higher, 170 nM
- CCC1(CC)CC(=O)N([C@@H]2CCOc3ccc(C(=O)NC4c5c(OC)cccc5OCC4(C)O)cc32)C(=N)N1 (single isomer, unassigned) [Example 259A] — 3.3-fold lower, 5.5 nM
- CC1(C)CC(=O)N([C@@H]2CCOc3ccc(C(=O)N[C@H]4CC(C)(C)Oc5ccccc54)cc32)C(=N)N1 [Example 12A, (R)-N-((S)-2,2-dimethylchroman-4-yl)-4-(2-imino-4,4-dimethyl-6-oxotetrahydropyrimidin-1(2H)-yl)chromane-6-carboxamide] — 17-fold lower, 1.1 nM
- CCC1(CC)CC(=O)N([C@H]2c3cc(C(=O)NC4c5ccccc5CC4(C)O)ccc3OC2(C)COC)C(=N)N1 (stereo partly drawn) [Example 76A, (2S,3S)-3-(4,4-diethyl-2-imino-6-oxotetrahydropyrimidin-1(2H)-yl)-N-(2-hydroxy-2-methyl-2,3-dihydro-1H-inden-1-yl)-2-(methoxymethyl)-2-methyl-2,3-dihydrobenzofuran-5-carboxamide] — 2.2-fold lower, 8.5 nM

Same assay, conditions: Plasmodium falciparum, Erythrocyte, 72 h, 0.7% rings, 2% haematocrit, 72 hours at 37° C., LDH readout of parasite growth

Point of comparison: `CC1(C)CC(=O)N([C@@H]2CC(C)(C)Oc3ccc(C(=O)N[C@@H]4c5ccccc5OC[C@H]4O)cc32)C(=N)N1` [Example 49A, (R)-N-((3S,4R)-3-hydroxychroman-4-yl)-4-(2-imino-4,4-dimethyl-6-oxotetrahydropyrimidin-1(2H)-yl)-2,2-dimethylchromane-6-carboxamide], EC50 49 nM. Against it:
- CC[C@]1(C)CC(=O)N([C@H]2C[C@H](C)c3ccc(C(=O)N[C@@H]4c5ccccc5OC(C)(C)[C@H]4O)cc32)C(=N)N1 [Example 170, (1S,3S)-3-[(4R)-4-ethyl-2-imino-4-methyl-6-oxo-hexahydropyrimidin-1-yl]-N-[(3S,4R)-3-hydroxy-2,2-dimethyl-chroman-4-yl]-1-methyl-indane-5-carboxamide] — 3.8-fold higher, 184 nM
- CC1(C)CC(=O)N(C2CCS(=O)(=O)c3ccc(C(=O)N[C@@H]4c5ccccc5C[C@]4(C)O)cc32)C(=N)N1 (stereo partly drawn) [Example 187, N-[(1R,2S)-2-hydroxy-2-methyl-indan-1-yl]-4-(2-imino-4,4-dimethyl-6-oxo-hexahydropyrimidin-1-yl)-1,1-dioxo-3,4-dihydro-2H-thiochromane-6-carboxamide] — within 1.5-fold, 66.7 nM
- CCC1(CC)CC(=O)N([C@H]2C[C@@H](OC)c3ccc(C(=O)N[C@@H]4c5ccccc5OC(C)(C)[C@H]4O)cc32)C(=N)N1 [Example 238, (1R,3S)-3-(4,4-diethyl-2-imino-6-oxo-hexahydropyrimidin-1-yl)-N-[(3S,4R)-3-hydroxy-2,2-dimethyl-chroman-4-yl]-1-methoxy-indane-5-carboxamide] — within 1.5-fold, 47.8 nM
- CC[C@]1(C)CC(=O)N([C@@H]2CCOc3ccc(C(=O)N[C@@H]4c5ccccc5OC[C@H]4OC)cc32)C(=N)N1 [Example 141, (4R)-4-[(4R)-4-ethyl-2-imino-4-methyl-6-oxo-hexahydropyrimidin-1-yl]-N-[(3S,4R)-3-methoxychroman-4-yl]chromane-6-carboxamide] — 5.8-fold lower, 8.4 nM
- CCC1(CC)CC(=O)N([C@@H]2CC(C)(C)Oc3ccc(C(=O)N[C@@H]4c5ccccc5OC(C)(C)[C@H]4O)cc32)C(=N)N1 [Example 34A, (R)-4-(4,4-diethyl-2-imino-6-oxotetrahydropyrimidin-1(2H)-yl)-N-((3S,4R)-3-hydroxy-2,2-dimethylchroman-4-yl)-2,2-dimethylchromane-6-carboxamide] — 41-fold lower, 1.2 nM
- CCC1(CC)CC(=O)N([C@H]2c3cc(C(=O)N[C@@H]4c5ccccc5OC[C@@]4(C)O)ccc3OC[C@@H]2OC)C(=N)N1 [Example 254, (3R,4S)-4-(4,4-diethyl-2-imino-6-oxo-hexahydropyrimidin-1-yl)-N-[(3S,4R)-3-hydroxy-3-methyl-chroman-4-yl]-3-methoxy-chromane-6-carboxamide] — 14-fold lower, 3.4 nM
- CCC1(CC)CC(=O)N([C@@H]2CCCc3ccc(C(=O)N[C@@H]4c5ccccc5OC[C@H]4O)cc32)C(=N)N1 [Example 125, (4R)-4-(4,4-diethyl-2-imino-6-oxo-hexahydropyrimidin-1-yl)-N-[(3S,4R)-3-hydroxychroman-4-yl]tetralin-6-carboxamide] — 23-fold lower, 2.1 nM
- CCC1(CC)CC(=O)N([C@@H]2CCOc3ccc(C(=O)N[C@@H]4c5ccccc5C[C@H]4O)cc32)C(=N)N1 [Example 5A, (R)-4-(4,4-diethyl-2-imino-6-oxotetrahydropyrimidin-1(2H)-yl)-N-((1R,2R)-2-hydroxy-2,3-dihydro-1H-inden-1-yl)chromane-6-carboxamide] — 8.3-fold lower, 5.9 nM
- CCC1(CC)CC(=O)N([C@@H]2C[C@@H](CCCCCCNC(=O)OC(C)(C)C)Oc3ccc(C(=O)N[C@H]4CC(C)(C)Oc5ccccc54)cc32)C(=N)N1 [Example 311, tert-butyl N-[6-[(2R,4R)-4-(4,4-diethyl-2-imino-6-oxo-hexahydropyrimidin-1-yl)-6-[[(4S)-2,2-dimethylchroman-4-yl]carbamoyl]chroman-2-yl]hexyl]carbamate] — 20-fold lower, 2.4 nM
- CCC1(CC)CC(=O)N([C@@H]2CCOc3ccc(C(=O)N[C@H]4c5ccccc5C(F)(F)[C@@H]4O)cc32)C(=N)N1 [Example 197, (4R)-4-(4,4-diethyl-2-imino-6-oxo-hexahydropyrimidin-1-yl)-N-[(1S,2R)-3,3-difluoro-2-hydroxy-indan-1-yl]chromane-6-carboxamide] — 2.6-fold higher, 125 nM
- CC[C@@]1(C)CC(=O)N([C@@H]2CCOc3ccc(C(=O)N[C@@H]4c5cc(F)ccc5OC(C)(C)[C@H]4O)cc32)C(=N)N1 [Example 225, (4R)-4-[(4S)-4-ethyl-2-imino-4-methyl-6-oxo-hexahydropyrimidin-1-yl]-N-[(3S,4R)-6-fluoro-3-hydroxy-2,2-dimethyl-chroman-4-yl]chromane-6-carboxamide] — 61-fold lower, 0.8 nM
- CCC1(CC)CC(=O)N([C@@H]2CCOc3ccc(C(=O)N[C@@H](C)c4ccccc4OC)cc32)C(=N)N1 [Example 111, (4R)-4-(4,4-diethyl-2-imino-6-oxo-hexahydropyrimidin-1-yl)-N-[(1S)-1-(2-methoxyphenyl)ethyl]chromane-6-carboxamide] — 1.8-fold higher, 90 nM
- CCC1(CC)CC(=O)N(C2c3cc(C(=O)N[C@@H]4c5ccccc5C[C@H]4O)ccc3OC2(C)C)C(=N)N1 (stereo partly drawn) [Example 127A, 3-(4,4-diethyl-2-imino-6-oxo-hexahydropyrimidin-1-yl)-N-[(1R,2R)-2-hydroxyindan-1-yl]-2,2-dimethyl-3H-benzofuran-5-carboxamide] — 4.1-fold higher, 202 nM
- CCC1(CC)CC(=O)N([C@H]2c3cc(C(=O)N[C@@H]4c5ccccc5OC[C@@]4(C)O)ccc3OC[C@@H]2COC)C(=N)N1 [Example 288, (3S,4R)-4-(4,4-diethyl-2-imino-6-oxo-hexahydropyrimidin-1-yl)-N-[(3S,4R)-3-hydroxy-3-methyl-chroman-4-yl]-3-(methoxymethyl)chromane-6-carboxamide] — 27-fold lower, 1.8 nM
- CCC1(CC)CC(=O)N([C@@H]2CCS(=O)(=O)c3ccc(C(=O)N[C@@H]4c5ccccc5C[C@]4(C)O)cc32)C(=N)N1 [Example 262, (4R)-4-(4,4-diethyl-2-imino-6-oxo-hexahydropyrimidin-1-yl)-N-[(1R,2S)-2-hydroxy-2-methyl-indan-1-yl]-1,1-dioxo-3,4-dihydro-2H-thiochromene-6-carboxamide] — 6.6-fold lower, 7.4 nM
- CC[C@]1(C)CC(=O)N([C@@H]2C[C@@H](C)Oc3ccc(C(=O)N[C@@H]4c5ccccc5C[C@H]4O)cc32)C(=N)N1 [Example 102, (2R,4R)-4-[(4R)-4-ethyl-2-imino-4-methyl-6-oxo-hexahydropyrimidin-1-yl]-N-[(1R,2R)-2-hydroxyindan-1-yl]-2-methyl-chromane-6-carboxamide] — 3.5-fold lower, 14 nM
- CCC1(CC)CC(=O)N([C@H]2C[C@H](COCCOCCOCCNC(=O)OC(C)(C)C)Oc3ccc(C(=O)N[C@H]4CC(C)(C)Oc5ccccc54)cc32)C(=N)N1 [Example 313, tert-butyl N-[2-[2-[2-[[(2R,4S)-4-(4,4-diethyl-2-imino-6-oxo-hexahydropyrimidin-l-yl)-6-[[(4S)-2,2-dimethylchroman-4-yl]carbamoyl]chroman-2-yl]methoxy]ethoxy]ethoxy]ethyl]carbamate] — 5.3-fold higher, 260 nM
- CCC1(CC)CC(=O)N([C@@H]2CCOc3c(Cl)cc(C(=O)N[C@@H]4CC(C)(C)Oc5ccccc54)cc32)C(=N)N1 [Example 26B, (R)-8-chloro-4-(4,4-diethyl-2-imino-6-oxotetrahydropyrimidin-1(2H)-yl)-N-((R)-2,2-dimethylchroman-4-yl)chromane-6-carboxamide] — 3.7-fold higher, 180 nM
- CCC1(CC)CC(=O)N([C@H]2c3cc(C(=O)N[C@@H]4c5ccccc5OC(C)(C)[C@H]4O)ccc3OC[C@@H]2COC)C(=N)N1 [Example 299, (3S,4R)-4-(4,4-diethyl-2-imino-6-oxo-hexahydropyrimidin-l-yl)-N-[(3S,4R)-3-hydroxy-2,2-dimethyl-chroman-4-yl]-3-(methoxymethyl)chromane-6-carboxamide] — 61-fold lower, 0.8 nM
- CC[C@]1(C)CC(=O)N(C2c3cc(C(=O)N[C@@H]4c5ccccc5C[C@@]4(C)O)ccc3OCC2OC)C(=N)N1 (stereo partly drawn) [Example 179, 4-[(4R)-4-ethyl-2-imino-4-methyl-6-oxo-hexahydropyrimidin-1-yl]-N-[(1R,2R)-2-hydroxy-2-methyl-indan-1-yl]-3-methoxy-chromane-6-carboxamide] — within 1.5-fold, 65.4 nM
- CCC1(CC)CC(=O)N([C@H]2CCS(=O)(=O)c3ccc(C(=O)N[C@@H]4c5ccccc5C[C@H]4O)cc32)C(=N)N1 [Example 223, (4S)-4-(4,4-diethyl-2-imino-6-oxo-hexahydropyrimidin-1-yl)-N-[(1R,2R)-2-hydroxyindan-1-yl]-1,1-dioxo-3,4-dihydro-2H-thiochromene-6-carboxamide] — 6.1-fold higher, 300 nM

Source: patent US12350270B2, “Antimalarial agents” (Merck Sharp & Dohme LLC, priority 2019, dated 2025)
